Assays:
sulfotransferase = test system: sulfotransferase; parameters: method as in PMID 29934491, PMID 29934490; settings: non nucleoside-derived; cited from earlier work
TPST1 [1] = molecular target: T1, TPST1 (Homo sapiens, UniProt O60507); assay: Immunoblot of GST-CC4tide tyrosine sulfation by TPST1 (anti-sulfotyrosine antibody); assay type: biochemical; settings: compound 400 μM, GST-CC4-tide 1 μg, TPST1 0.2 μg, PAPS 5 μM, 15 min
T1 construct: Human TPST1 (residues Lys43-Leu360) enzyme was purified as a recombinant protein; made in house
T1 sequence (O60507 43-360): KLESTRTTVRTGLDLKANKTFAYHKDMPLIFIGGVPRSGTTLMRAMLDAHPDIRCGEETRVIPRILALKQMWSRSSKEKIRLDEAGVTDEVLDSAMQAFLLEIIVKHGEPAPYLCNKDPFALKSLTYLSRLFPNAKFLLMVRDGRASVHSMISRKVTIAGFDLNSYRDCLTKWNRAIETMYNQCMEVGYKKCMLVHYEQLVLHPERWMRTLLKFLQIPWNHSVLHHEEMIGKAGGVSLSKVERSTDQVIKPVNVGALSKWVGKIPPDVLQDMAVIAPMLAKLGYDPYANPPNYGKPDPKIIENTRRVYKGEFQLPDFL
Experimental: In order to further assess TPST1 inhibition by 2′-deoxy-PAP and compounds 1–14 using a complementary assay, immunoblotting of a TPST1 protein substrate (GST-CC4tide) was implemented with a monoclonal antibody that specifically recognises sulfotyrosine, using PAP as positive control (Fig. 5A). Compounds were screened at 400 μM in the assay. In common with the […] enzyme assay using a synthetic peptide, a broad range of inhibitory activities was observed.
Fig. 5 Immunological evaluation of TPST1 inhibition towards substrate and a Ser/Thr protein kinase counter-screen. (A) Immunoblots evaluating TPST1 sulfotransferase activity in the presence of a panel of PAP- and PAPS-mimetic compounds. […] After termination of the reaction using SDS-PAGE sample buffer, tyrosine sulfation was visualised by immunoblotting using a monoclonal sulfotyrosine antibody (top panel), with equal GST-CC4-tide and TPST1 loading confirmed using an antibody to detect 6xHis tagged proteins (bottom panel). (B) Enzymatic inhibition of PKA catalytic activity by a panel of PAP- and PAPS-mimetic compounds. PKA kinase (1 nM) was incubated with ATP (5 μM) in the presence of the appropriate nucleoside analogue (400 μM) for 30 min at 20 °C. PKA activity was calculated in real-time using fluorescently-labelled substrate peptide (2 μM) and normalised to DMSO (4% v/v) or buffer control.[77] Data in B is mean and SD of 3 individual experiments. Staurosporine is included at 40 μM as a generic inhibitor of kinase activity. […]
All standard laboratory biochemicals, were purchased from Sigma, and were of the highest analytical quality.
(§1) 5'-phosphosulfate, lithium salt hydrate, PAP (adenosine 3',5'-diphosphate, disodium salt), CoA (coenzymeA, sodium salt), ATP (adenosine 5’-triphosphate, disodium salt hydrate) were all purchased from Sigma and stored at -80 °C to minimise degradation.
(§2) Recombinant Protein Production and SDS-PAGE
(§3) Human TPST1 (residues Lys43-Leu360) enzyme was purified as a recombinant protein containing an N-terminal 6xHis tag as previously described. […]
pMAL-c2x plasmid encoding an N-terminal Maltose Binding Protein (MBP) affinity tag.6 Glutathione-S-transferase (GST) tagged CC4-tide ([…]) was cloned into pOPINJ (OPPF-UK) and […]
affinity purified from BL21 (DE3) pLysS E. coli using Glutathione-Sepharose 4B (GE Healthcare). 5 For SDS-PAGE, proteins were denatured in Laemmli sample buffer, heated at 95 °C for 5 min and then analysed by SDS-PAGE with 10% (v/v) polyacrylamide gels. Gels were stained and de-stained using a standard Coomassie Brilliant Blue protocol. To evaluate protein sulfation by immunoblotting, standard western blotting procedures were followed using monoclonal anti-sulfotyrosine ant ibody clone o-1C-A2 (Millipore) generated using a phage display procedure and sulfotyrosine selection peptide antigens7 in the presence of appropriate positive and negative controls, and modifications visua lised using ECL […]
Data was normalized […]
with respect to these control assays, with sulfate incorporation into the substr ate limited to ~ 20% to prevent depletion of PAPS and to ensure assay linearity. K m and IC50 values were determined by non-linear regression analysis with GraphPad Prism software. […]

HS2ST = molecular target: T2, HS2ST (Gallus gallus, UniProt Q76KB1); assay: Microfluidic mobility shift sulfation assay, HS2ST (fluorescent hexasaccharide substrate); assay type: biochemical, chicken; settings: read-out: IC50 against HS2ST
T2 construct: made in house; host or cells: E. coli Rosetta-gami (DE3)
T2 sequence (Q76KB1 1-356): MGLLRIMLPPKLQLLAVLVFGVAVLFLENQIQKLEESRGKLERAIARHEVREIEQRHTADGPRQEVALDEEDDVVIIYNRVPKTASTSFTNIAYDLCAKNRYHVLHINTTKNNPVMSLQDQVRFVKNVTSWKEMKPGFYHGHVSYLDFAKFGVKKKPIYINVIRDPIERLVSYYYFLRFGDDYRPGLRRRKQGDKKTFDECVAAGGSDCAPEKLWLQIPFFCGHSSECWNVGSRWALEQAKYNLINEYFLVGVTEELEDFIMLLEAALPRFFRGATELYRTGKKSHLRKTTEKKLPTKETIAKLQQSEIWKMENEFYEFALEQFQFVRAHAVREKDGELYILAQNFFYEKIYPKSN
Experimental: (§4) Compounds were initially screened at 400 μM in the presence 20 nM HS2ST and 0.1 μM TPST1 respectively.
(§5) Fig. 4 Summary of enzymatic inhibition assays against HS2ST and TPST1. (A) Enzymatic analysis of HS2ST1 inhibition by a panel of PAP- and PAPS-mimetic compounds. […] HS2ST sulfotransferase activity was assayed using a fluorescent hexasaccharide substrate (2 μM) and normalised to DMSO (4% v/v) or buffer control. Data shown is mean and SD of 4 repeat experiments. (B) Full dose–response curves for selected compounds. […] HS2ST activity calculated as previously described. Data from two independent experiments are combined. (C) Enzymatic analysis of TPST1 inhibition by a panel of PAP- and PAPS-mimetic compounds. […] TPST1 activity was measured using fluorescently-labelled CC4-tide (2 μM) and normalised to DMSO (4% v/v) or buffer control. (D) Full dose–response curves for selected compounds. […] TPST1 activity was measured using CC4-tide and normalised to DMSO or buffer controls as previously described. The data shown is from duplicate experiments.
N-sulfated, fluorescein-tagged HS2ST1 hexasaccharide glycan substrate (GlcNS-GlcA- GlcNS-IdoA-GlcNS-GlcA-fluorescein, where S=sulfation) containing L-IdoA at the third residue from the reducing end (to which a linker and the fluorophore were conjugated) was purchased from GLY CAN therapeutics. TPST1 peptide substrate (CC4-tide, 5-FAM-EDFED YEFDG-CONH2) was synthesised using solid-phase Fmoc chemistry (Pepceuticals, Leicester, UK). All standard laboratory biochemicals, were purchased from Sigma, and were of the highest analytical quality.
as §1
Recombinant Protein Production and SDS-PAGE […]
(§6) Microfluidics-Based Sulfation Assay
(§7) Non-radioactive microfluidic mobility shift peptide and carbohydrate sulfation assays were performed in solution with a 12-sipper chip coated with SR8 reagent and a Perkin Elmer EZ Reader II system 8 using an EDTA-based separation buffer and real-time kinetic evaluation of substrate sulfation. Pressure and voltage settings were adjusted manually to afford optimal separation of the sulfated product and non-sulfated substrate, with a sample (sip) volume of 20 nL, and total assay tim es appropriate for the experiment. The fluorophore tagged TPST1 peptide substrate and HS2ST1 glycan substrate where detected by the EZ Reader via LED-induced fluorescence.
(§8) Individual sulfation assays were assembled in a 384 well plate in a volume of 80 µL in the presence of […]
(§9) and 5 mM MgCl2. The degree of substrate sulfation was directly calculated using EZ Reader software by measuring the sulfo-product:non-sulfated substrate ratio at each time-point. The act ivity of the sulfotransferase enzymes in the presence of biochemicals and small molecule inhibitors was quantified in ‘kinetic mode’ by monitoring the amount of sulfated product generated over the assay time, relative to control assay with no additional inhibitor molecule (DMSO or buffer control). Data was normalized with respect to these control assays, with sulfate incorporation into the substr ate limited to ~ 20% to prevent depletion of PAPS and to ensure assay linearity. K m and IC50 values were determined by non-linear regression analysis with GraphPad Prism software. […]

TPST1 [2] = molecular target: T1, TPST1; assay: Microfluidic mobility shift sulfation assay, TPST1 (fluorescent CC4-tide substrate); assay type: biochemical; settings: for IC50: read-out: IC50 against TPST1
Experimental: as §4
as §5, with “duplicate experiments. […]” for “duplicate experiments.”
TPST1 peptide substrate (CC4-tide, 5-FAM-EDFED YEFDG-CONH2) was synthesised using solid-phase Fmoc chemistry (Pepceuticals, Leicester, UK). All standard laboratory biochemicals, were purchased from Sigma, and were of the highest analytical quality.
as §1, §2, §3, §6, §7, §8, §9

SMILES | suppression of tyrosine sulfation (immunoblot) (TPST1 [1]) | IC50 (HS2ST) [µM] | IC50 (TPST1 [2]) [µM] | also measured
Cc1ccc(C(=O)Nc2ccc(S(=O)(=O)O)c3cc(S(=O)(=O)O)cc(S(=O)(=O)O)c23)cc1NC(=O)c1cccc(NC(=O)Nc2cccc(C(=O)Nc3cc(C(=O)Nc4ccc(S(=O)(=O)O)c5cc(S(=O)(=O)O)cc(S(=O)(=O)O)c45)ccc3C)c2)c1 [suramin] |  |  |  | sulfotransferase inhibitor potency (sulfotransferase): low/sub-micromolar
Nc1ncnc2c1ncn2[C@H]1C[C@H](OP(=O)(O)O)[C@@H](Cn2cc(C(=O)O)nn2)O1 [Compound 8] | partial suppression | 100 to 300 |  | 
Nc1ncnc2c1ncn2[C@H]1C[C@H](OCC(=O)NO)[C@@H](COCC(=O)NO)O1 [Compound 3] | partial suppression |  |  | 
COC(=O)COC1CC(n2cnc3c(N)ncnc32)OC1COP(=O)(O)OCc1ccccc1 (stereo not drawn) [Compound 6] | complete suppression |  | 100 to 300 | 
Nc1ncnc2c1ncn2[C@H]1C[C@H](O)[C@@H](Cn2cc(C(=O)OCc3ccccc3)nn2)O1 [Compound 9] | partial suppression | 100 to 300 |  | 
Nc1ncnc2c1ncn2[C@H]1C[C@H](O)[C@@H](Cn2cc(C(=O)O)nn2)O1 [Compound 7] | did not show any activity |  |  | inhibitory activity against TPST1 (TPST1 [2]; compound 400 μM, TPST1 0.1 μM, PAPS 5 μM): showed activity
Nc1ncnc2c1ncn2[C@@H]1O[C@H](COP(=O)(O)O)[C@@H](OP(=O)(O)O)[C@H]1O [PAP, adenosine 3′,5′-diphosphate, reference compound] |  | 2 | 1.5 | 
CC(=O)c1c(O)c(C)c(O)c(Cc2c(O)c3c(c(C(=O)/C=C/c4ccccc4)c2O)OC(C)(C)C=C3)c1O [rottlerin] |  |  |  | sulfotransferase inhibitor potency (sulfotransferase): low/sub-micromolar
COC(=O)COC1CC(n2cnc3c(N)ncnc32)OC1COP(=O)(O)O (stereo not drawn) [Compound 5] | complete suppression |  | 100 to 300 | 

— paper PMC9072872, “Structure-based design of nucleoside-derived analogues as sulfotransferase inhibitors” (RSC Advances, 2019)
